# US11371077B2, “High throughput cell-based screening for aptamers” (MeiraGTx UK II Limited, priority 2016, dated 2022)
# Counter-ions that a name gives are not always drawn. Like-named read-outs stand apart in the source and are kept apart here. Where a SMILES comes first, the peptide text is derived from it. [ ]: non-standard residue; d: D form. The star is where a group is joined. Sta = CC(C)C[C@H](N)[C@@H](O)CC(=O)O; Isovaleryl = CC(C)CC(=O)*
# Legend:
# Format in all cases: cell-based
# yxj-A6 riboswitch = assay: cells; conditions: yxj-A6 riboswitch, Prestwick library compounds at 100 μM, HEK 293; for fold induction at 100 µM: Homo sapiens, HEK293, read-out: Fold Induction of luciferase activity
# Excerpt: (§1) A truncated human beta-globin intron sequence was synthesized and inserted in the coding sequence of a firefly luciferase gene. A mutant human DHFR exon 2 was synthesized and inserted in the middle of this truncated beta-globin intron sequence using Golden gate cloning strategy. Aptamers including xpt-G/A^1, ydhl-G/A^2, yxj^3, add^4, gdg6-G/A^5 (citations for the aptamers are incorporated herein by reference) were synthesized as oligonucleotides (“oligos”) with 4 nucleotide overhang at the 5′ end that are complementary to two different BsaI sites individually (IDT), annealed and ligated to BsaI-digested mDHFR-Luci-acceptor vector.
# (§2) 3.5×10^4 HEK 293 cells were plated in a 96-well flat bottom plate the day before transfection. Plasmid DNA (500 ng) was added to a tube or a 96-well U-bottom plate. Separately, TransIT-293 reagent (Mirus; 1.4 μL) was added to 50 μL Opti-mem I media (Life Technologies), and allowed to sit for 5 minutes at room temperature (RT). Then, 50 μL of this diluted transfection reagent was added to the DNA, mixed, and incubated at RT for 20 min. Finally, 7 μL of this solution was added to a well of cells in the 96-well plate.
# (§3) 24 hours after media change, plates were removed from the incubator, and equilibrated to RT for several minutes on a lab bench, then aspirated. Glo-lysis buffer (Promega, 100 μL, RT) was added, and the plates maintained at RT for at least 5 minutes. Then, the well contents were mixed by 50 μL trituration, and 20 μL of each sample was mixed with 20 μL of bright-glo reagent (Promega) that had been diluted to 10% in glo-lysis buffer. 96 wells were spaced on an opaque white 384-well plate. Following a 5 min incubation at RT, luminescence was measured using a Tecan machine with 500 mSec read time. […]
# add-A6 riboswitch = assay: cells; conditions: add-A6 riboswitch, Prestwick library compounds at 100 μM, HEK 293; for fold induction at 100 µM: Homo sapiens, HEK293, read-out: Fold Induction of luciferase activity
# Excerpt: (§4) Riboswitches were constructed as described in PCT/US2016/016234 (in particular Examples 3 to 6), incorporated herein by reference. A truncated human beta-globin intron sequence was synthesized and inserted in the coding sequence of a firefly luciferase gene. A mutant human DHFR exon 2 was synthesized and inserted in the middle of this truncated beta-globin intron sequence using Golden gate cloning strategy. Aptamers including xpt-G/A^1, ydhl-G/A^2, yxj^3, add^4, gdg6-G/A^5 (citations for the aptamers are incorporated herein by reference) were synthesized as oligonucleotides (“oligos”) with 4 nucleotide overhang at the 5′ end that are complementary to two different BsaI sites individually (IDT), annealed and ligated to BsaI-digested mDHFR-Luci-acceptor vector.
# as §2
# (§5) 24 hours after media change, plates were removed from the incubator, and equilibrated to RT for several minutes on a lab bench, then aspirated. Glo-lysis buffer (Promega, 100 μL, RT) was added, and the plates maintained at RT for at least 5 minutes. Then, the well contents were mixed by 50 μL trituration, and 20 μL of each sample was mixed with 20 μL of bright-glo reagent (Promega) that had been diluted to 10% in glo-lysis buffer. 96 wells were spaced on an opaque white 384-well plate. Following a 5 min incubation at RT, luminescence was measured using a Tecan machine with 500 mSec read time. The luciferase activity was expressed as mean relative light unit (RLU)±S.D., and fold induction was calculated as the luciferase activity obtained with guanine treatment divided by luciferase activity obtained without guanine treatment.
# gdg6-A8 riboswitch = assay: Luciferase reporter assay, gdg6-A8 riboswitch, transfected HEK 293 cells; conditions: for fold induction at 100 µM: Homo sapiens, HEK293, gdg6-A8 riboswitch, Prestwick library compounds at 100 μM, HEK 293; for Fold Induction of luciferase activity: 100 µM
# Excerpt: as §4, §2, §5
# xpt-G17 riboswitch = assay: Luciferase reporter assay, xpt-G17 riboswitch, transfected HEK 293 cells; conditions: Prestwick library compounds at 100 μM, HEK 293, preliminary screen; for fold induction at 100 µM: Homo sapiens, HEK293, xpt-G17 riboswitch; for Fold Induction of luciferase activity: xpt-G17 riboswitch
# Excerpt: as §1, §2, §5
# add-G6 riboswitch = assay: cells; conditions: add-G6 riboswitch, Prestwick library compounds at 100 μM, HEK 293; for fold induction at 100 µM: Homo sapiens, HEK293, read-out: Fold Induction of luciferase activity
# Excerpt: as §1
# as §2, with “Separately, TransIT-293 reagent (Mirus; 1.4 μL) was added to 50 μL Opti-mem I media (Life Technologies), and allowed to sit for 5 minutes at room temperature (RT).” left out
# as §3
# xpt-A8 riboswitch = assay: cells; conditions: xpt-A8 riboswitch, Prestwick library compounds at 100 μM, HEK 293; for fold induction at 100 µM: Homo sapiens, HEK293, read-out: Fold Induction of luciferase activity
# Excerpt: as §4, §2, §5
# gdg6-G8 riboswitch = assay: Luciferase reporter assay, gdg6-G8 riboswitch, transfected HEK 293 cells; conditions: for fold induction at 100 µM: Homo sapiens, HEK293, gdg6-G8 riboswitch, Prestwick library compounds at 100 μM, HEK 293; for Fold Induction of luciferase activity: 100 µM
# Excerpt: as §4, §2, §5
# ydhl-A6 riboswitch = assay: Luciferase reporter assay, ydhl-A6 riboswitch, transfected HEK 293 cells; conditions: for Fold Induction of luciferase activity: ydhl-A6 riboswitch; for fold induction at 100 µM: Homo sapiens
# Excerpt: as §1
# as §2, with “Separately, TransIT-293 reagent (Mirus; 1.4 μL) was added to 50 μL Opti-mem I media (Life Technologies), and allowed to sit for 5 minutes at room temperature (RT).” left out
# as §5
# ydhl-G8 riboswitch = assay: Luciferase reporter assay, ydhl-G8 riboswitch, transfected HEK 293 cells; conditions: for Fold Induction of luciferase activity: ydhl-G8 riboswitch, Prestwick library compounds at 100 μM, HEK 293
# Excerpt: as §1
# as §2, with “Separately, TransIT-293 reagent (Mirus; 1.4 μL) was added to 50 μL Opti-mem I media (Life Technologies), and allowed to sit for 5 minutes at room temperature (RT).” left out
# as §5
# [1] = Prestwick library compounds at 100 μM, HEK 293
# [2] = HEK293, read-out: Fold Induction of luciferase activity, ydhl-A6 riboswitch, Prestwick library compounds at 100 μM, HEK 293
compound,measurement,setting,value
Nc1ccc(S(=O)(=O)Nc2cnc3ccccc3n2)cc1 [Sulfaquinoxaline sodium],fold induction at 100 µM,yxj-A6 riboswitch,3.4
same,fold induction at 100 µM,add-A6 riboswitch,3.3
CC(CN1c2ccccc2Sc2ccccc21)N(C)C (stereo not shown) [Promethazine hydrochloride],fold induction at 100 µM,gdg6-A8 riboswitch,4.8
same,fold induction at 100 µM,yxj-A6 riboswitch,7.9
same,fold induction at 100 µM,xpt-G17 riboswitch,5.3
same,fold induction at 100 µM,add-G6 riboswitch,6.7
same,fold induction at 100 µM,add-A6 riboswitch,4.5
same,fold induction at 100 µM,xpt-A8 riboswitch,5.4
same,fold induction at 100 µM,gdg6-G8 riboswitch,6.5
Alverine citrate salt,Fold Induction of luciferase activity,ydhl-A6 riboswitch; [1],4.2 fold
O=C(CCCN1CCC(n2c(O)nc3ccccc32)CC1)c1ccc(F)cc1 [Benperidol],fold induction at 100 µM,ydhl-A6 riboswitch; [2],3.1
CN1CCC(=C2c3ccccc3Sc3ccccc32)CC1 [Pimethixene maleate],fold induction at 100 µM,gdg6-A8 riboswitch,9.2
same,fold induction at 100 µM,yxj-A6 riboswitch,4.9
same,fold induction at 100 µM,xpt-G17 riboswitch,4.7
same,fold induction at 100 µM,add-G6 riboswitch,6.6
same,fold induction at 100 µM,add-A6 riboswitch,4.2
same,fold induction at 100 µM,xpt-A8 riboswitch,3.3
same,fold induction at 100 µM,gdg6-G8 riboswitch,5.1
O=C(O)CCc1nc(-c2ccccc2)c(-c2ccccc2)o1 [Oxaprozin],fold induction at 100 µM,ydhl-A6 riboswitch; [2],3.4
thioguanosine,Fold Induction of luciferase activity,gdg6-A8 riboswitch,20.1 fold
same,Fold Induction of luciferase activity,yxj-A6 riboswitch,10.2 fold
same,Fold Induction of luciferase activity,xpt-G17 riboswitch,21.0 fold
same,Fold Induction of luciferase activity,add-G6 riboswitch,7.9 fold
same,Fold Induction of luciferase activity,add-A6 riboswitch,5.9 fold
same,Fold Induction of luciferase activity,xpt-A8 riboswitch,11.8 fold
same,Fold Induction of luciferase activity,gdg6-G8 riboswitch,15.9 fold
same,Fold Induction of luciferase activity,ydhl-G8 riboswitch,7.5 fold
OCCN1CCN(CCCN2c3ccccc3C=Cc3ccccc32)CC1 [Opipramol dihydrochloride],fold induction at 100 µM,gdg6-A8 riboswitch,3.1
same,fold induction at 100 µM,add-A6 riboswitch,4.3
S=c1nc[nH]c2nc[nH]c12 [Mercaptopurine],fold induction at 100 µM,gdg6-A8 riboswitch,17.2
same,fold induction at 100 µM,yxj-A6 riboswitch,10
same,fold induction at 100 µM,add-G6 riboswitch,14.3
same,fold induction at 100 µM,add-A6 riboswitch,15
same,fold induction at 100 µM,xpt-A8 riboswitch,3.4
same,fold induction at 100 µM,gdg6-G8 riboswitch,16.2
same,fold induction at 100 µM,"ydhl-G8 riboswitch; Homo sapiens, HEK293, read-out: Fold Induction of luciferase activity",3.6
CNC1(C)C2CCC(C2)C1(C)C (stereo not shown) [Mecamylamine hydrochloride],fold induction at 100 µM,ydhl-A6 riboswitch; [2],3.2
CCOC(=O)Nc1ccc2c(c1)N(C(=O)CCN1CCOCC1)c1ccccc1S2 [Moricizine hydrochloride],fold induction at 100 µM,"ydhl-A6 riboswitch; HEK293, read-out: Fold Induction of luciferase activity",10.3
CC(=O)c1ccc2c(c1)N(CCCN(C)C)c1ccccc1S2.O=C(O)/C=C\C(=O)O [Acetopromazine maleate salt],Fold Induction of luciferase activity,gdg6-A8 riboswitch,8.6 fold
same,Fold Induction of luciferase activity,yxj-A6 riboswitch,3.1 fold
same,Fold Induction of luciferase activity,xpt-G17 riboswitch,4.5 fold
same,Fold Induction of luciferase activity,add-G6 riboswitch,5.0 fold
same,Fold Induction of luciferase activity,add-A6 riboswitch,3.5 fold
same,Fold Induction of luciferase activity,gdg6-G8 riboswitch,3.2 fold
same,Fold Induction of luciferase activity,ydhl-G8 riboswitch,3.9 fold
CC(C)CC(=O)N[C@H](C(=O)N[C@H](C(=O)N[C@@H](CC(C)C)[C@@H](O)CC(=O)N[C@@H](C)C(=O)N[C@@H](CC(C)C)[C@@H](O)CC(=O)O)C(C)C)C(C)C [Pepstatin A] (Isovaleryl-VV[Sta]A[Sta]-OH),Fold Induction of luciferase activity,ydhl-A6 riboswitch; [1],4.0 fold
